According to PMC10384183, “Silver(I) and Copper(II) 1,10-Phenanthroline-5,6-dione Complexes as Promising Antivirulence Strategy against Leishmania: Focus on Gp63 (Leishmanolysin)” (Tropical Medicine and Infectious Disease, 2023):
Read-outs that look alike come from different tables or passages of the source. Where a SMILES comes first, the peptide text is derived from it. The star is where a group is joined. AMC = Cc1cc(=O)oc2cc(N*)ccc12; Cbz = O=C(OCc1ccccc1)*

Key:
secreted gp63 [1] = biological target: T1, secreted gp63 (Leishmania amazonensis, UniProt Q27673); assay: Detection of gp63 activity using fluorogenic substrate Z-Phe-Arg-AMC (kinetics, classical inhibitors); assay type: biochemical; design: endogenous in cells; host or cells: Leishmania amazonensis promastigotes; 0.22-µm filtered PBS-glucose-conditioned supernatant; conditions: for effect on hydrolysis of Z-Phe-Arg-AMC by gp63: 1 h, alkaline pH
T1 sequence (Q27673 100-597): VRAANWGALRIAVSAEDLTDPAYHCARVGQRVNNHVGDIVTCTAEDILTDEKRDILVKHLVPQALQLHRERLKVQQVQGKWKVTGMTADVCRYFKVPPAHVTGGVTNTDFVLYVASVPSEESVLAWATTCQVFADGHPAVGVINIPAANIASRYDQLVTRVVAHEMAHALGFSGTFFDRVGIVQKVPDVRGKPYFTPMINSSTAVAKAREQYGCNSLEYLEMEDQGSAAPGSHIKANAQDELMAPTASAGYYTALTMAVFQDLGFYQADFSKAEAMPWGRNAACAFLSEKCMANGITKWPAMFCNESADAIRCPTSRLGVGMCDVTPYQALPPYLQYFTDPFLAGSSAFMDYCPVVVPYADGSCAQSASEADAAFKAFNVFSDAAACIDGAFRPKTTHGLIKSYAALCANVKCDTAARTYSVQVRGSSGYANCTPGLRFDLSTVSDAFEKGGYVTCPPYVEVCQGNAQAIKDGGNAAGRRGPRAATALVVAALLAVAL
Method: The enzymatic activity of secreted gp63 was evaluated by the cleavage of the fluorogenic substrate Z-Phe-Arg-AMC. A 5 mM stock solution of the fluorogenic substrate was prepared in DMSO. The reaction was initiated by adding different substrate concentrations (2.5 µM, 5.0 µM, 10 µM and 20 µM) to gp63 (20 µg protein) in a total volume of 100 µL of 50 mM glycine-NaOH buffer, pH 10.0 [38]. At the same time, the titration of the amount of gp63 was also performed. In this sense, different concentrations of gp63 (ranging from 0.156 to 20 µg) were added to 10 µM Z-Phe-Arg-AMC substrate in a total volume of 100 µL of 50 mM glycine-NaOH buffer, pH 10.0. […] The reaction mixture was incubated at 37 °C for 1 h and the assays were controlled for self-release of the fluorophore in the same time interval. Proteolytic activity was expressed as fluorescence arbitrary units (FAU). Apparent Km and Vmax values were calculated using a computerized non-linear regression from the data obtained from the Michaelis–Menten equation (GraphPad Prism 8).

[2] = system: cell-associated metallo-type peptidases (gp63); assay: gp63 proteolytic activity of cell extracts of treated promastigotes; assay type: cell-based, Leishmania amazonensis; conditions: promastigotes treated 24 h, IC50 and 2 × IC50; Z-Phe-Arg-AMC; versus untreated cells
Method: After that, promastigotes were washed and processed to evaluate both gp63 activity and gp63 protein levels.
For gp63 proteolytic activity, initially, whole parasite cellular extracts were obtained by repeated freeze/thawing cycles using 10^6 viable cells in PBS containing 1% CHAPS (3-[(3-cholamidopropyl) dimethylammonium]-1-propanesulfonate), pH 7.0. […] The gp63 proteolytic activity was determined as previously described using the cleavage of the fluorogenic substrate Z-Phe-Arg-AMC.

[3] = system: L. amazonensis promastigotes and THP-1 human macrophages; assay: Promastigotes-macrophage interaction (association index); assay type: cell-based, Leishmania amazonensis; design: key: % infected macrophages × amastigotes per macrophage
Method: The human leukemia monocytic cell line (THP-1) was maintained in 25-cm^2 tissue culture flasks with RPMI 1640 medium (Sigma-Aldrich, St. Louis, MO, USA) supplemented with 10% FBS at 37 °C in an atmosphere containing 5% CO2. To perform interaction experiments, THP-1 cells were seeded in 24-well plates at a density of 2 × 10^5 cells/well and then differentiated into macrophages by treatment with phorbol-12-myristate-13-acetate (PMA; 40 ng/mL) (Sigma-Aldrich) for 48 h. Then, the plates were washed twice with sterile PBS (pH 7.2) to remove PMA and a fresh RPMI 1640 medium was added. At the same time, L. amazonensis promastigotes were treated with the IC50 or 2 × IC50 values of the test compounds for 24 h. After this period, the parasites were allowed to infect the mammalian cells (10 parasites per macrophage) for 24 h at 37 °C and 5% CO2, in the absence or presence of 10 µg soluble gp63. Then, the cultures were washed with PBS to remove non-internalized parasites, fixed with methanol and stained with Giemsa. The percentage of infected macrophages was determined by randomly counting 200 cells on each of triplicate coverslips using a bright-field microscope. The association index was obtained by multiplying the percentage of infected macrophages by the number of amastigotes per macrophage.

[4] = system: L. braziliensis gp63, membrane-associated form; design: method as in PMID 34363115; conditions: cited from earlier work
[5] = system: L. braziliensis promastigotes and murine macrophages; design: method as in PMID 34363115; conditions: promastigotes pre-treated for 1 h; cited from earlier work
L. braziliensis = system: L. braziliensis; design: method as in doi:10.1016/j.ejmcr.2022.100093; conditions: hamsters; cited from earlier work
secreted gp63 [6] = biological target: T1, secreted gp63
Method: (§1) L. amazonensis promastigotes (10^9 cells) were resuspended in 2 mL of sterile isotonic PBS supplemented with 2% glucose and incubated for 3 h at both 26 °C (invertebrate host temperature) and 37 °C (mammalian host temperature). After this interval, parasite cells were removed by centrifugation and the supernatant (named PBS-glucose-conditioned supernatant) was passed over a 0.22-μm sterilizing membrane (Millipore, São Paulo, Brazil). The protein concentration was quantified by the method described by Lowry et al. [35], using bovine serum albumin (BSA) as standard.
(§2) To perform this, the reaction mixture containing 10 μg protein, 10 µM substrate and 50 mM glycine-NaOH buffer, pH 10.0, was incubated in the absence or presence of different concentrations of Ag-phendione (ranging from 40 to 0.625 μM) and Cu-phendione (ranging from 1000 to 15.62 μM). Fluorescence was measured using a SpectraMax Gemini XPS fluorescence microplate reader (Molecular Devices, Silicon Valley, CA, USA) at an excitation wavelength of 380 nm and an emission wavelength of 460 nm. […] The inhibitory constant (Ki) value was calculated using a derivation of the Michaelis–Menten equation employing GraphPad Prism 8.

[7] = system: L. amazonensis promastigotes; design: method as in PMID 36678418; conditions: 72 h of parasite-drug contact; cited from earlier work
[8] = system: L. amazonensis amastigotes; design: method as in PMID 36678418; conditions: amastigotes in THP-1 macrophages; cited from earlier work
LasB = biological target: LasB; design: method as in PMID 31428062; conditions: cited from earlier work
secreted gp63 [9] = biological target: T1, secreted gp63; assay: Gelatin-SDS-PAGE zymography of gp63 proteolysis; assay type: biochemical; design: endogenous in cells; host or cells: Leishmania amazonensis promastigotes; 0.22-µm filtered PBS-glucose-conditioned supernatant; conditions: 10 mM, pH 10.0, 48 h, 37 °C
Method: Proteolytic activity was assayed by SDS-PAGE containing 0.1% gelatin (Sigma-Aldrich, St. Louis, MO, USA) incorporated into the gel as the proteinaceous substrate. Briefly, 10 micrograms of proteins present in the PBS-glucose-conditioned supernatant were added to the SDS-PAGE sample buffer (125 mM Tris, pH 6.8, 4% SDS, 20% glycerol and 0.002% bromophenol blue) and subsequently subjected to electrophoresis, which was processed at 200 V/20 mA, for 2 h at 4 °C. Subsequently, SDS was removed by incubation of the gels with 2.5% Triton X-100 (Sigma-Aldrich, St. Louis, MO, USA) for 1 h at room temperature under constant agitation. The gels were incubated for 48 h at 37 °C in 50 mM glycine-NaOH buffer, pH 10.0, to promote proteolysis in the absence and in the presence of classical proteolytic inhibitors as follows: 10 mM phen, 10 mM phenylmethylsulphonyl fluoride (PMSF; Sigma-Aldrich, St. Louis, MO, USA) and 10 µM trans-epoxysuccinyl L-leucylamido-(4-guanidino) butane (E-64; Sigma-Aldrich, St. Louis, MO, USA). Finally, the gels were stained with 0.2% Coomassie Brilliant Blue R-250 (Sigma-Aldrich, St. Louis, MO, USA) in methanol–acetic acid–water (50:10:40) and destained in a solution containing methanol–acetic acid–water (5:10:85). The molecular masses of the peptidases were estimated by comparison with the mobility of molecular mass standards (Thermo Fisher Scientific, Waltham, MA, USA).

secreted gp63 [10] = biological target: T1, secreted gp63; assay: biochemical
Method: as §1, §2

papain = system: papain; design: method as in PMID 8907521; conditions: cited from earlier work
[11] = promastigotes pre-treated 24 h with 2 × IC50 value, in the presence of 10 µg gp63-rich supernatant
[12] = promastigotes pre-treated 24 h with 2 × IC50 value, without gp63-rich supernatant
[13] = promastigotes pre-treated 24 h with IC50 value, in the presence of 10 µg gp63-rich supernatant
[14] = promastigotes pre-treated 24 h with IC50 value, without gp63-rich supernatant

CC(C)C[C@H](NC(=O)[C@H]1O[C@@H]1C(=O)O)C(=O)NCCCCN=C(N)N (relative stereo) [E-64, trans-epoxysuccinyl L-leucylamido-(4-guanidino) butane]
effect on hydrolysis of Z-Phe-Arg-AMC by gp63 (secreted gp63 [1]; inhibitor at 10 µM): did not significantly change the enzymatic activity

O=C1C(=O)c2cccnc2-c2ncccc21.O=C1C(=O)c2cccnc2-c2ncccc21.[Ag+].[O-][Cl+3]([O-])([O-])[O-] [Ag-phendione, [Ag(phendione)2]ClO4]
proteolytic capacity of cell-associated metallo-type peptidases reduced to [2]: approximately 55% | association index (AI) [3, 11]: 77.3 | association index (AI) [3, 12]: 48.2 | association index (AI) [3, 13]: 88.1 | association index (AI) [3, 14]: 60.6 | reduction of proteolytic activity ([4]; 1 μg/mL): 68% | reduction of the Leishmania-macrophage interaction [5]: approximately 51.4% | protective action (paw lesion, parasite number in paw and lymph nodes) (L. braziliensis): excellent protective action

O.O.O.O.O=C1C(=O)c2cccnc2-c2ncccc21.O=C1C(=O)c2cccnc2-c2ncccc21.O=C1C(=O)c2cccnc2-c2ncccc21.[Cu+2].[O-][Cl+3]([O-])([O-])[O-].[O-][Cl+3]([O-])([O-])[O-] [Cu-phendione, [Cu(phendione)3](ClO4)2.4H2O]
proteolytic capacity of cell-associated metallo-type peptidases reduced to [2]: approximately 48% | association index (AI) [3, 11]: 64.6 | association index (AI) [3, 12]: 54.8 | association index (AI) [3, 13]: 76.5 | association index (AI) [3, 14]: 63.1 | IC50 (secreted gp63 [6]; secreted gp63 10 µg, 10 µM Z-Phe-Arg-AMC, glycine-NaOH pH 10.0, 37 °C, 1 h): 163 µM | Ki (secreted gp63 [6]; secreted gp63, Z-Phe-Arg-AMC, glycine-NaOH pH 10.0): 27.1 µM | IC50 [7]: 0.0075 µM | IC50 [8]: 0.035 µM | Ki (LasB): 0.09 µM | reduction of proteolytic activity ([4]; 0.1 μg/mL): 65% | reduction of proteolytic activity ([4]; 1 μg/mL): 80% | reduction of the Leishmania-macrophage interaction [5]: 44.4% | protective action (paw lesion, parasite number in paw and lymph nodes) (L. braziliensis): excellent protective action

O=S(=O)(F)Cc1ccccc1 [PMSF, phenylmethylsulphonyl fluoride]
effect on hydrolysis of Z-Phe-Arg-AMC by gp63 (secreted gp63 [1]; inhibitor at 10 mM): did not significantly change the enzymatic activity

c1cnc2c(c1)ccc1cccnc12 [Phen, 1,10-phenanthroline]
effect on hydrolysis of Z-Phe-Arg-AMC by gp63 (secreted gp63 [1]; inhibitor at 10 mM): strong inhibition of the proteolytic activity | effect on proteolytic bands around 66 kDa (secreted gp63 [9]): inhibited

O=C1C(=O)c2cccnc2-c2ncccc21 [Phendione, 1,10-Phenanthroline-5,6-dione]
Ki (LasB): 0.38 µM | reduction of proteolytic activity ([4]; 1 μg/mL): 67% | IC50 (secreted gp63 [10]): 1490 µM | Ki (secreted gp63 [10]): 745 µM

Cc1cc(=O)oc2cc(NC(=O)C(CCCN=C(N)N)NC(=O)C(Cc3ccccc3)NC(=O)OCc3ccccc3)ccc12 (stereo not drawn) [Z-Phe-Arg-AMC] (Cbz-Phe-Arg-{AMC}; configuration not given here)
Vmax (secreted gp63 [1]; cleavage of Z-Phe-Arg-AMC by released gp63, pH 10.0, 37 °C): 0.064 µM/s | Km (secreted gp63 [1]; cleavage of Z-Phe-Arg-AMC by released gp63, pH 10.0, 37 °C, read-out: apparent Km): 14.2 µM

oryzacystatin I1 [OCII, reference compound]
proteolytic activity of papain restored after electrophoresis (papain): ~100%

B1: oryzacystatin I (protein, UniProt P09229 27-140, looked up)
Cysteine proteinase inhibitor …: EAHRAGGEGEEKMSSDGGPVLGGVEPVGNENDLHLVDLARFAVTEHNKKANSLLEFEKLVSVKQQVVAGTLYYFTIEVKEGDAKKLYEAKVWEKPWMDFKELQEFKPVDASANA
inhibition of enzymatic activity of papain by the complex after electrophoresis (papain): about 80%
